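Results reflect a 48-hour exposure of cells in 96-well plates to compound at five concentrations. At the GI50, growth is halved.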 Calls of active or inactive are those of the source. No stated cut-off is given here; in the data, active = GI50 up to about 1.1 µM and inactive = higher.
Columns and labels:
Experiment in all cases: inhibition of tumour cell growth, NCI panel, 48 h
[1] = system: HOP-62
[2] = system: ACHN
[3] = system: SK-MEL-28
[4] = system: SN12C
[5] = system: 786-0
[6] = system: UO-31
[7] = system: MOLT-4
[8] = system: HCC 2998
[9] = system: UACC-62
[10] = system: KM-20L2
[11] = system: LOX IMVI
[12] = system: SF-539
[13] = system: SR
[14] = system: SF-295
[15] = system: SNB-75
[16] = system: SK-OV-3
[17] = system: A498
[18] = system: EKVX
[19] = system: RXF 393

Measured: GI50

Nc1nc(=O)c(/N=N/c2ccccc2)c(N)[nH]1
inactive: [1] 30.8 µM | [2] 27.4 µM | [3] 24.8 µM | [4] 52.7 µM | [5] 55 µM | [6] 42.4 µM | [7] > 100 µM | [8] 38.4 µM | [9] 18.6 µM | [10] 59.2 µM | [11] 47.5 µM | [12] 26.4 µM | [13] > 100 µM | [14] 32.7 µM | [15] 3.78 µM | [16] 60.3 µM | [17] 45.2 µM

CCCCCCCCCCCCCCCC(=O)NCC(COP(=O)([O-])OCC[N+](C)(C)C)OCC (configuration not stated)
inactive: [1] 7.35 µM | [2] 15 µM | [3] 21 µM | [4] 12.5 µM | [5] 2.54 µM | [6] 18.5 µM | [7] 3.24 µM | [8] 1.55 µM | [18] 19.2 µM | [9] 9.35 µM | [10] 4.01 µM | [11] 16.3 µM | [12] 16.2 µM | [19] 2.1 µM | [13] 4.58 µM | [14] 5.2 µM | [15] 11 µM | [16] 18 µM | [17] > 10 µM

CC1=NN(C(=O)Nc2ccccc2)C(=O)C2CCC(=O)N12 (configuration not stated)
inactive: [1] > 100 µM | [2] > 100 µM | [3] > 100 µM | [4] > 100 µM | [5] > 100 µM | [6] > 100 µM | [7] > 100 µM | [8] > 100 µM | [18] > 100 µM | [9] > 100 µM | [10] > 100 µM | [11] > 100 µM | [12] > 100 µM | [19] > 100 µM | [13] > 100 µM | [14] > 100 µM | [15] 84.3 µM | [16] > 100 µM | [17] > 100 µM

C=CCc1ccc(O)c(-c2cc(C3Oc4c(-c5cc(CC=C)ccc5O)cc(O)cc4[C@@H]3CO)ccc2O)c1 (some centres not stated)
inactive: [1] 21.4 µM | [2] 36.2 µM | [3] 26.7 µM | [4] 32.9 µM | [5] 33.5 µM | [6] 40.2 µM | [8] 22.1 µM | [18] 64.4 µM | [9] 30.3 µM | [10] 26.7 µM | [11] 16.9 µM | [12] 24 µM | [19] 21.2 µM | [13] 14.4 µM | [14] 48.3 µM | [15] 45.9 µM | [16] 42.7 µM | [17] 14.8 µM

CCCCCCCCCCCCCCCC(=O)NC1CCc2cc(O)c(O)c(O)c2-c2ccc(SC)c(=O)cc21 (configuration not stated)
inactive: [1] 9.59 µM | [2] 8.04 µM | [3] 6.67 µM | [4] 12.9 µM | [5] 16.6 µM | [6] 8.22 µM | [7] 9.44 µM | [8] 4.01 µM | [18] 19 µM | [9] 2.9 µM | [10] 15.7 µM | [11] 12 µM | [12] 2.07 µM | [19] 1.46 µM | [13] 2.79 µM | [14] 3.7 µM | [15] 2.62 µM | [16] 14.4 µM | [17] 19.3 µM

COc1ccc(C(=O)C(c2ccc(OC)cc2)C2(O)C(=O)Nc3c(C)cc(Cl)cc32)cc1 (configuration not stated)
inactive: [1] > 100 µM | [2] > 100 µM | [3] > 100 µM | [4] 58.1 µM | [5] > 100 µM | [6] > 100 µM | [7] 14.1 µM | [8] > 100 µM | [18] > 100 µM | [9] 23.2 µM | [10] > 100 µM | [12] 69.8 µM | [19] > 100 µM | [13] 12.5 µM | [14] 54.8 µM | [15] 33.2 µM | [16] > 100 µM | [17] > 100 µM

C/C(=N/O)c1ccc2c(c1)/C(=N/O)c1cc(/C(C)=N/O)ccc1-2
inactive: [1] 13.4 µM | [2] 8.53 µM | [3] 17.3 µM | [4] 16.3 µM | [5] 17.2 µM | [6] 15.1 µM | [7] 2.49 µM | [8] 15.3 µM | [18] 7.13 µM | [9] 14.2 µM | [10] 17.4 µM | [11] 13 µM | [12] 15.5 µM | [19] 23 µM | [13] 3.45 µM | [14] 15.3 µM | [15] 17.9 µM | [16] 21.4 µM

O=[N+]([O-])c1cc(/C=N/NS(=O)(=O)c2ccc(F)cc2)c(O)c([N+](=O)[O-])c1
inactive: [1] 43.2 µM | [2] 40.5 µM | [3] 82.8 µM | [4] 33.7 µM | [5] 41.3 µM | [6] > 100 µM | [7] 21.9 µM | [8] > 100 µM | [18] > 100 µM | [9] 46.3 µM | [10] 25.9 µM | [11] 39.5 µM | [12] 22 µM | [19] 36.6 µM | [13] 18.4 µM | [14] 52.8 µM | [15] 25.9 µM | [16] 30.1 µM | [17] 29.9 µM

COc1ccc(C(=O)C(CC2C(=O)NC(=O)NC2=O)c2ccc(OC)cc2)cc1 (configuration not stated)
inactive: [1] > 100 µM | [2] > 100 µM | [3] > 100 µM | [4] > 100 µM | [5] > 100 µM | [6] > 100 µM | [7] > 100 µM | [8] > 100 µM | [18] > 100 µM | [9] > 100 µM | [10] > 100 µM | [11] > 100 µM | [12] > 100 µM | [19] > 100 µM | [13] > 100 µM | [14] > 100 µM | [15] > 100 µM | [16] > 100 µM | [17] > 100 µM

C=CCC1C(=O)CC2(C)CC(=O)C(CC=C)C12C (configuration not stated)
inactive: [1] > 100 µM | [2] > 100 µM | [3] > 100 µM | [4] > 100 µM | [5] > 100 µM | [6] > 100 µM | [7] > 100 µM | [8] > 100 µM | [18] > 100 µM | [9] > 100 µM | [10] > 100 µM | [11] > 100 µM | [12] > 100 µM | [19] > 100 µM | [13] > 100 µM | [14] > 100 µM | [15] 76.9 µM | [16] > 100 µM

COC(=O)[C@@H]1CSC(=S)N1C(=O)C[C@H]1CC=CC[C@H]1CC(=O)Sc1ccccc1
inactive: [1] 20.7 µM | [2] 17.6 µM | [3] 16.4 µM | [4] 15.7 µM | [5] 17.5 µM | [6] 13.8 µM | [7] 4.29 µM | [8] 17.9 µM | [18] 17.4 µM | [9] 19.3 µM | [10] 20.9 µM | [11] 17.7 µM | [12] 17.8 µM | [19] 14.2 µM | [13] 8.99 µM | [14] 22 µM | [15] 15.4 µM | [16] 27.8 µM
